The target in experiment [1] is T1, Heat shock factor protein 1 (Mus musculus, UniProt P38532).
T1 sequence (P38532 whole entry): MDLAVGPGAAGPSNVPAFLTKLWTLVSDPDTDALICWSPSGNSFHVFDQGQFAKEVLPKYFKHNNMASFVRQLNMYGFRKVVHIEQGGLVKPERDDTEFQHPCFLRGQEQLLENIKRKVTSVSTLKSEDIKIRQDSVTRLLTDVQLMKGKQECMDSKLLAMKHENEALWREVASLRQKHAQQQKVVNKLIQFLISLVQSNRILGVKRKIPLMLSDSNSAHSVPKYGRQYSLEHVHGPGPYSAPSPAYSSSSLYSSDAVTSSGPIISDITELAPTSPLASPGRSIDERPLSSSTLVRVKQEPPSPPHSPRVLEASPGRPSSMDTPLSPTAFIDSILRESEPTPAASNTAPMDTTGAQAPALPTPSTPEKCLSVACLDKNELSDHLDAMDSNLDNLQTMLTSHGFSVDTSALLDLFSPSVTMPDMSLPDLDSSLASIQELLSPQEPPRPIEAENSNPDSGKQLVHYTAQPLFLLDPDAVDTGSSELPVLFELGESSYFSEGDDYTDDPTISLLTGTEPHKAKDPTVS
Nature of the experiment: inhibition of MG132-induced HSE-luciferase signal, confirmation, cell-based, NIH3T3, luminescence, dose retest (AID 2382).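 Note: NIH3T3 fibroblasts with HSF1-driven luciferase reporter stressed by proteasome inhibitor MG132; luminescence from HSF1-driven luciferase expression after 8 hours of MG132 stress.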 Type of experiment: functional.

A further experiment is described as follows: cells. Type of experiment: functional.
Experiment [2] is described as follows: Shn3 3'UTR reporter inhibitors, dose response, cell-based, Clone20 osteoblasts, firefly luciferase, cherry-picked (AID 624132).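 Note: firefly luciferase luminescence from reporter carrying the Shn3 3'UTR in osteoblasts.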 Type of experiment: functional.
Experiment [3] is described as follows: HepG2 cell cytotoxicity, dose response, cytotoxicity control for Shn3 inhibitor project, CellTiter-Glo, cherry-picked (AID 624134). Type of experiment: functional, cell-based.
Another experiment has as its target Protein Wnt-3a (Mus musculus, UniProt P27467). Nature of the experiment: Wnt3a-driven reporter signaling inhibition, dose response, selectivity assay for Gli-SUFU antagonist project, Wnt-LIGHT cells, luminescence (AID 651570).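 Note: Wnt-LIGHT reporter cells stimulated with conditioned medium from Wnt3a-producing cells.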 Type of experiment: functional. As to conditions: read-out: IC50_Mean.
In a further experiment the target is T2, Cysteine protease ATG4B (Homo sapiens, UniProt Q9Y4P1).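 Note: Fluorescence-based dose-response confirmation assay measuring inhibition of ATG4B activity.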
T2 sequence (Q9Y4P1 whole entry): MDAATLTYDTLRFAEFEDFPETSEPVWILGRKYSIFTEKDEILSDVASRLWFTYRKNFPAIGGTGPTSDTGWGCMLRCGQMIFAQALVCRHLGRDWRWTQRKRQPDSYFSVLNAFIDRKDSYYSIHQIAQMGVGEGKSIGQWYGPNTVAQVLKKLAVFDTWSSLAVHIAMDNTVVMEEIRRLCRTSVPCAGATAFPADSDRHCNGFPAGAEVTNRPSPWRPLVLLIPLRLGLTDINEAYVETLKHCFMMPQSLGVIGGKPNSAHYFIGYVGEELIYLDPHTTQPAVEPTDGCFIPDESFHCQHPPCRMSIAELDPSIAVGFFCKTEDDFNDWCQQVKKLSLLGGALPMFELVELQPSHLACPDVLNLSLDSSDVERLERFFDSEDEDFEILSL
Type of experiment: functional.

For a further experiment, the target named is Phospholipase A2 (Homo sapiens, UniProt P04054). Type of experiment: functional.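 Note: confirmatory dose-response counterscreen on phospholipase A2, testing hits that came from an ultra-high-throughput screen for ATG4B inhibitors.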
The target in experiment [4] is T3, Corticotropin-releasing factor receptor 2/Corticotropin-releasing factor-binding protein (Homo sapiens, UniProt P24387+Q13324).
T3 sequence (Q13324 whole entry): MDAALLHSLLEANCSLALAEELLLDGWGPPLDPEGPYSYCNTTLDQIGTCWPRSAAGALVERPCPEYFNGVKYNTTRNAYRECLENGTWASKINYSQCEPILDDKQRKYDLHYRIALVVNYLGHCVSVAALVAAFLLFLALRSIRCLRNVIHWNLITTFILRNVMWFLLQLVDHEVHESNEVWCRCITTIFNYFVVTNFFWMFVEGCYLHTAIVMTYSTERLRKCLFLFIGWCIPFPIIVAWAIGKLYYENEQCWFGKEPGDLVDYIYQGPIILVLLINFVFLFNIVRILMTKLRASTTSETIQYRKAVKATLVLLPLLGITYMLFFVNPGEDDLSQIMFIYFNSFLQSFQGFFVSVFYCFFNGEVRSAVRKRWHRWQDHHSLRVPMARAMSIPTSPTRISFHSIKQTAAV
T3 sequence (P24387 whole entry): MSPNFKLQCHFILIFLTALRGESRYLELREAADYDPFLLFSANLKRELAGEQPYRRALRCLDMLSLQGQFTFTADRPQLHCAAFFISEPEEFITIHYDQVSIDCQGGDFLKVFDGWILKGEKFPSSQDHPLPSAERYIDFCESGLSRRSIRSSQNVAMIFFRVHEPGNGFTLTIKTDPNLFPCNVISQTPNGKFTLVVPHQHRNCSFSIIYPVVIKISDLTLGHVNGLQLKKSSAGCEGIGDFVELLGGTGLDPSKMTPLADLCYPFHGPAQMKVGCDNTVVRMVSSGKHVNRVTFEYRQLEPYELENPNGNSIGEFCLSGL
Nature of the experiment: activators of CRF receptor 2 with binding protein – uHTS hits, confirmation (AID 602473). As to conditions: read-out: EC50_Mean. Type of experiment: functional.

Experiment [5] in a line: HeLa cell cytotoxicity, dose response, cytotoxicity control for MgcRacGAP inhibitor project (AID 624300). Type of experiment: functional.
In experiment [6] the target is T4, Rac GTPase-activating protein 1 (Homo sapiens, UniProt Q9H0H5).
T4 sequence (Q9H0H5 whole entry): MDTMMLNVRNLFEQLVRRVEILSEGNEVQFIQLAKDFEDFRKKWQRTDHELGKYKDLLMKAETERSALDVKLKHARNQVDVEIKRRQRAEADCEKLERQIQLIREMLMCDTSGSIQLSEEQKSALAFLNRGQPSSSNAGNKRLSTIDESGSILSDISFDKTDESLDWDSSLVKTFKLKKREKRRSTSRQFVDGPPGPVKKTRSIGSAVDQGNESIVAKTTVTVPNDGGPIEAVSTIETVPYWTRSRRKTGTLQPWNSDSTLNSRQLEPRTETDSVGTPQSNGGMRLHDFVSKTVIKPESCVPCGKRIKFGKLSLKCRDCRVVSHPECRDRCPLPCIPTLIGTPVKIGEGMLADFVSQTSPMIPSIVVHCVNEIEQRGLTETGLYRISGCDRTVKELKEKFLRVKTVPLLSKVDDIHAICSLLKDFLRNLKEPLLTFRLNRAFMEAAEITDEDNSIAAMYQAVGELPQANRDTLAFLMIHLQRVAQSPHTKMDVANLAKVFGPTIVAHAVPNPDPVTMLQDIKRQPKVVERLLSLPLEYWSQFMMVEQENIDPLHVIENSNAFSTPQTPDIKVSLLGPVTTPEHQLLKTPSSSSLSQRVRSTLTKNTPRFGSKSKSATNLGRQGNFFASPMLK
Nature of the experiment: MgcRacGAP GTPase-activating activity inhibitors, confirmation, biochemical, ADP Hunter fluorescence, primary and confirmatory (AID 624330). Type of experiment: functional.

Experiment [7] in a line: insulin promoter down-regulators in MIN6 cells, imaging, high-content screening, mouse beta cells (AID 1628). Type of experiment: functional.
The nature of experiment [8]: cytotoxicity in MIN6 insulinoma cells, dose response, cytotoxicity control, cell-based, mouse insulinoma (AID 2122).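 Note: confirmatory high-throughput counterscreen run to flag cytotoxic compounds; mouse MIN-6 beta cells carrying an insulin promoter eGFP reporter.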 Type of experiment: functional.
The target of experiment [9] is T5, Long-chain-fatty-acid--AMP ligase FadD28 (Mycobacterium tuberculosis, UniProt P9WQ59).
T5 sequence (P9WQ59 whole entry): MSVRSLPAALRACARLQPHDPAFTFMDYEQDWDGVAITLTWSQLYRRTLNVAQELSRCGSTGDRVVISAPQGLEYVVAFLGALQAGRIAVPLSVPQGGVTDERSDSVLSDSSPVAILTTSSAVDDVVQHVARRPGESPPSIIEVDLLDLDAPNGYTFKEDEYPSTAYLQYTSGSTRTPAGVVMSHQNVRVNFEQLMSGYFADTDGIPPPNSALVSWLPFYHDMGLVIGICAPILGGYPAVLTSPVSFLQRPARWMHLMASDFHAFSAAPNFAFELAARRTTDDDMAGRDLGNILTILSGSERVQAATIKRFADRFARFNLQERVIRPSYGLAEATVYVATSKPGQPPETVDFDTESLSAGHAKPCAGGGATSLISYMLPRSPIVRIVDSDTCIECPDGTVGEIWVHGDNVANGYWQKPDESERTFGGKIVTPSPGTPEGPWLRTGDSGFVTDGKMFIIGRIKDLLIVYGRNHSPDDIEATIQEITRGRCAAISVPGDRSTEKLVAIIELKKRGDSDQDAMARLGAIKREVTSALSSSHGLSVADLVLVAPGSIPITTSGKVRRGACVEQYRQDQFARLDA
Nature of the experiment: Fluorescence polarization aasay to screen for inhibitors that compete for the binding of FadD28 to a bisubstrate Measured in Biochemical System Using Plate Reader - 2147-01_Inhibitor_Dose_CherryPick_Activity. Type of experiment: functional, Mycobacterium tuberculosis H37Rv.

In experiment [10] the target is 26S proteasome non-ATPase regulatory subunit 14 (Homo sapiens, UniProt O00487). Nature of the experiment: inhibition of proteasome subunit RPN11 – biochemical, fluorescence polarization, uHTS hits, confirmation (AID 602368). Type of experiment: functional.
The target of experiment [11] is 72 kDa type IV collagenase (Homo sapiens, UniProt P08253). Nature of the experiment: Dose Response validation of uHTS RPN11 inhibitor hits using a MMP-2 Fluorescence assay. Type of experiment: functional.
The target in another experiment is Prothrombin (Bos taurus, UniProt P00735). Nature of the experiment: thrombin inhibition, dose response, biochemical, fluorescence polarization, uHTS hits (AID 602369). Type of experiment: functional. A general note: In fluorescence polarisation assays a small probe gives low polarisation when free and higher when bound to something large.
Experiment [12] in a line: P. falciparum Dd2 growth inhibitors, dose response, SYBR Green, cherry-picked samples (AID 1159567). Type of experiment: functional, cell-based.
Experiment [13] in a line: control 3'UTR Renilla luciferase suppression, dose response, counter-screen for Shn3 inhibitor project, cell-based, Clone20-Shn3RL, cherry-picked (AID 624133). Type of experiment: functional. In general terms: A counterscreen serves to expose hits that act by an unwanted route or on another target.
The nature of experiment [14]: inhibitors of clade B AD8 Env fusion, dose response, cell-based, cherry-pick (AID 652062).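 Note: luciferase signal from cell-cell fusion driven by HIV-1 clade B AD8 Env; potency is for inhibitors of fusion seen as a drop in luminescence.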 Type of experiment: functional.

Activity calls are given as the source filed them. Numbered stars: 1 amine (or outer) side, 2 acyl side, 3 side chain; on linkers, the order of the positions; unused ones are H or OH. Square brackets hold non-standard residues; d marks the D form. Peptide text beside a SMILES is read from it. ξ: configuration not given here. X1 = CCCCCCC[C@H](O)C[C@@H](N[*:1])[C@@H](O)C(=O)[*:2]; X3 = COc1ccc(CCCC(N[*:1])C(=O)[*:2])cc1; ξThr(3R) = C[C@@H](O)C(N)C(=O)O; NMeN = CN[C@@H](CC(N)=O)C(=O)O; X2 = C/C=C(/N[*:1])C(=O)[*:2]; Dhb = C/C=C(\N)C(=O)O; Sar = CNCC(=O)O

The term AC50 denotes the concentration at which the activity in the assay is half-maximal. Broadly, the CC50 is the concentration at which the toxic effect on the cells reaches its halfway point.

Sequence of Protein Wnt-3a (P27467 whole entry): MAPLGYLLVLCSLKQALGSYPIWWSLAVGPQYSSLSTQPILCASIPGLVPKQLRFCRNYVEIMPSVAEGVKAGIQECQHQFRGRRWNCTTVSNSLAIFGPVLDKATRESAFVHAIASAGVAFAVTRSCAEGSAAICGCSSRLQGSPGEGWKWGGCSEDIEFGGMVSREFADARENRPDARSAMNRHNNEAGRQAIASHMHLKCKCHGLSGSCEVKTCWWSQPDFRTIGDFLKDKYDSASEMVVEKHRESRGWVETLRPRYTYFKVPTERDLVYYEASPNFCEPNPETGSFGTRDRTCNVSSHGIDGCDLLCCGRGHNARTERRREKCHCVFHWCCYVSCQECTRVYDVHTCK
Sequence of 72 kDa type IV collagenase (P08253 whole entry): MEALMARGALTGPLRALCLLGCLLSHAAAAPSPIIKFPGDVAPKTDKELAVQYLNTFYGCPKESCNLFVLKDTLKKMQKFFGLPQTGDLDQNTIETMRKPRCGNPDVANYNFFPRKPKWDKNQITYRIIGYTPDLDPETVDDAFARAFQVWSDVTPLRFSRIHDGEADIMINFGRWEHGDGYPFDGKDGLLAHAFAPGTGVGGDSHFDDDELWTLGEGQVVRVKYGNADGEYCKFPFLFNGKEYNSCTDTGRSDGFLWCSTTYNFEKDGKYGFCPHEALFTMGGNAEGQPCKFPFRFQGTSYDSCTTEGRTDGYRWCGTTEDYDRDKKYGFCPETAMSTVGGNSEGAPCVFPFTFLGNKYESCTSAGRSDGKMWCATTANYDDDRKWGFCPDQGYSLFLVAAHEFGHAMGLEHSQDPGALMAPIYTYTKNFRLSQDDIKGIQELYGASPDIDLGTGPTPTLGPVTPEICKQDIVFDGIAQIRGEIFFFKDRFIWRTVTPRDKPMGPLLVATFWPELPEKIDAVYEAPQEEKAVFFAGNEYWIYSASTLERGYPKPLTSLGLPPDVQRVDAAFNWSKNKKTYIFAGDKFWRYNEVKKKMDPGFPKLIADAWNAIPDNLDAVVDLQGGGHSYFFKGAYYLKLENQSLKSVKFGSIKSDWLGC
Sequence of Phospholipase A2 (P04054 whole entry): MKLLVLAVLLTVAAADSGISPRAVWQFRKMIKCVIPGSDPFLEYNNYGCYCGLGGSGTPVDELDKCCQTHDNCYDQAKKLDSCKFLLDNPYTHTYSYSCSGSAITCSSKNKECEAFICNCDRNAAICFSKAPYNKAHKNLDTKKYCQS
Sequence of 26S proteasome non-ATPase regulatory subunit 14 (O00487 whole entry): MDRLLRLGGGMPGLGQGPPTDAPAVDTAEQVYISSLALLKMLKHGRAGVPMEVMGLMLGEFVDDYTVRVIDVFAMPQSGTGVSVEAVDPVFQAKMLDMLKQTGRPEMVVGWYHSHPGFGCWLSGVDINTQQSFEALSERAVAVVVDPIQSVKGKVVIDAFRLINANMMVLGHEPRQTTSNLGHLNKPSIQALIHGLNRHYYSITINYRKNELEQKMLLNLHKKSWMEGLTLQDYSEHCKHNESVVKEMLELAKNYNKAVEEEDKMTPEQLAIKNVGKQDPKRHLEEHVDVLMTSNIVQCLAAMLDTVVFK

As for `COc1ccc(CN2CCC(C(=O)Nc3ccc(Oc4cccnc4)cc3)CC2)c(C)c1C`, the EC50 in experiment [1] was > 195 µM (not active). Also, the IC50 in “cells” was 10.3 µM (active); on Protein Wnt-3a, 5.34 µM (active). The figures for the AC50 in [2] and in experiment [3] were 3.68 µM (active) and 12.9 µM (active), respectively.
Turning to `O=C1NC(=S)S/C1=C\c1cc(Cl)cc(Cl)c1O`, the IC50 is 3.47 µM (active) at Cysteine protease ATG4B, 14.8 µM (active) at Phospholipase A2 and 65.4 µM (active) in experiment [6]. Also, the EC50 in experiment [4] was 7.19 µM (active). Moreover, the CC50 in experiment [5] is 100 µM (active).
As for `COCCn1c(CN2CCC(Cc3ccccc3)CC2)nc2c1c(=O)n(C)c(=O)n2C`, the figures for the IC50 (in [7]; in [8]; on Protein Wnt-3a) were 0.597 µM (active), 0.355 µM (active) and 2.11 µM (active), respectively.
On to `C/C=C1\NC(=O)[C@H](CC(N)=O)N(C)C(=O)C([C@@H](C)O)NC(=O)C(CCCc2ccc(OC)cc2)NC(=O)[C@H](C(C)C)NC(=O)/C(=C\C)NC(=O)[C@H](O)[C@@H](C[C@@H](O)CCCCCCC)NC(=O)[C@H](C)NC(=O)CN(C)C(=O)[C@H](CCC(N)=O)NC1=O` (stereo partly drawn) (cyclo(A[X1][X2]V[X3][ξThr(3R)][NMeN][Dhb]Q[Sar])), for which the AC50 in experiment [9] was > 100 µM (inactive).
On to `COc1ccc(C#Cc2ccc3c(c2)O[C@@H](CN(C)C(=O)Nc2cccc(OC)c2)[C@H](C)CN([C@@H](C)CO)S3(=O)=O)cc1`, for which the figures for the IC50 (in experiment [10]; in experiment [11]; on Prothrombin) were 30.5 µM (active), > 100 µM (inactive) and 42.8 µM (active), respectively. Besides, the AC50 in experiment [12] was 3.01 µM (active).
On to `Cc1cc(-c2ccccc2)cc(-c2ccccc2)[n+]1C`, for which, on Protein Wnt-3a, the IC50 is 5.02 µM (active).
In the case of `CCCCn1c(CN(C)Cc2ccccc2)nc2c1c(=O)n(C)c(=O)n2C`, the AC50 in experiment [2] is 2.38 µM (active); in [3], 68.8 µM (active); in [13], 2.08 µM (active); in experiment [14], 4.78 µM (active). Also, the IC50 on Protein Wnt-3a is 4.51 µM (active).

The record behind these values is ChEMBL document CHEMBL1201862, “PubChem BioAssay data set” (2004).
